# Measured values published in patent US7829582B2, “Piperidinyl substituted pyrrolidinones as inhibitors of 11-beta-hydroxysteroid dehydrogenase 1” (Eli Lilly and Company, priority 2006, dated 2010).
# Experiments:
# 11β-HSD1 [1] = target: T1, 11β-HSD1 (Homo sapiens, UniProt P28845); experiment: Human aortic smooth muscle cell assay (cortisone to cortisol conversion); assay type: cell-based; details: primary human aortic smooth muscle cells (AoSMC), hTNFα-induced 11β-HSD1, cortisol measured by immunoassay
# T1 construct: endogenous in cells; host or cells: primary human aortic smooth muscle cells (AoSMC), induced with hTNFα
# Description: Human Aortic Smooth Muscle Cell Assay
# Primary human aortic smooth muscle cells (AoSMC) are cultured in 5% FBS growth medium to a passage number of 6, then pelleted by centrifugation and resuspended at a density of 9×10^4 cells/mL in 0.5% FBS assay medium containing 12 ng/mL hTNFα to induce expression of 11β-HSD1. Cells are seeded into 96-well tissue culture assay plates at 100 μL/well (9×10^3 cells/well) and incubated for 48 hours at 37° C., 5% CO2. Following induction, cells are incubated for 4 hours at 37° C., 5% CO2 in assay medium containing test compounds then treated with 10 μL/well of 10 μM cortisone solubilized in assay medium, and incubated for 16 hours at 37° C., 5% CO2. Medium from each well is transferred to a plate for subsequent analysis of cortisol using a competitive fluorescence resonance time resolved immunoassay. In solution, an allophycocyanin (APC)-cortisol conjugate and free cortisol analyte compete for binding to a mouse anti-cortisol antibody/Europium (Eu)-anti mouse IgG complex. Higher levels of free cortisol result in diminishing energy transfer from the Europium-IgG to the APC-cortisol complex resulting in less APC fluorescence. Fluorescent intensities for Europium and APC are measured using a LJL Analyst AD. Europium and APC excitation is measured using 360 nm excitation and 615 nm and 650 nm emission filters respectively. Time resolved parameters for Europuium were 1000 μs integration time with a 200 μs delay. APC parameters are set at 150 μs integration time with a 50 μs delay. Fluorescent intensities measured for APC are modified by dividing by the Eu fluorescence (APC/Eu). This ratio is then used to determine the unknown cortisol concentration by interpolation using a cortisol standard curve fitted with a 4-parameter logistic equation. These concentrations are then used to determine compound activity by plotting concentration versus % inhibition, fitting with a 4-parameter curve and reporting the IC50.
# 11β-HSD1 [2] = target: T2, 11β-HSD1 (Mus musculus, UniProt P50172); experiment: Acute in vivo cortisone conversion assay; details: male C57BL/6 mice, oral dose 10 mg/kg, cortisone challenge 16 hours post dose, serum cortisol by LC-MS/MS
# T2 construct: tissue Harlan Sprague Dawley; host or cells: whole animal, male C57BL/6 mice; serum cortisol read-out
# Description: Acute In Vivo Cortisone Conversion Assay
# In general, compounds are dosed orally into mice, the mice are challenged with a subcutaneous injection of cortisone at a set timepoint after compound injection, and the blood of each animal is collected some time later. Separated serum is then isolated and analyzed for levels of cortisone and cortisol by LC-MS/MS, followed by calculation of mean cortisol and percent inhibition of each dosing group. Specifically, male C57BL/6 mice are obtained from Harlan Sprague Dawley at average weight of 25 grams. Exact weights are taken upon arrival and the mice randomized into groups of similar weights. Compounds are prepared in 1% w-w HEC, 0.25% w-w polysorbate 80, 0.05% w-w Dow Corning antifoam #1510-US at various doses based on assumed average weight of 25 grams. Compounds are dosed orally, 200 μl per animal, followed by a subcutaneous dose, 200 μl per animal, of 30 mg/kg cortisone at 1 to 24 hours post compound dose. At 10 minutes post cortisone challenge, each animal is euthanized for 1 minute in a CO2 chamber, followed by blood collection via cardiac puncture into serum separator tubes. Once fully clotted, tubes are spun at 2500×g, 4° C. for 15 minutes, the serum transferred to wells of 96-well plates (Corning Inc, Costar #4410, cluster tubes, 1.2 ml, polypropylene), and the plates are frozen at −20° C. until analysis by LC-MS/MS. […]
# T1 sequence (P28845 whole entry): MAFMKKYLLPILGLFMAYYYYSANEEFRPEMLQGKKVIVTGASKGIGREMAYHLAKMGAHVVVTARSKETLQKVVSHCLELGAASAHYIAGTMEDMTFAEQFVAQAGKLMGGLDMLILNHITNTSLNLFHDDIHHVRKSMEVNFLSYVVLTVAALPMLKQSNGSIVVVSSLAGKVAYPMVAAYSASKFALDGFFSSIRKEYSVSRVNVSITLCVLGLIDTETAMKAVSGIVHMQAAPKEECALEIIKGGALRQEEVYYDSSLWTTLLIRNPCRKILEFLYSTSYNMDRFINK
# T2 sequence (P50172 whole entry): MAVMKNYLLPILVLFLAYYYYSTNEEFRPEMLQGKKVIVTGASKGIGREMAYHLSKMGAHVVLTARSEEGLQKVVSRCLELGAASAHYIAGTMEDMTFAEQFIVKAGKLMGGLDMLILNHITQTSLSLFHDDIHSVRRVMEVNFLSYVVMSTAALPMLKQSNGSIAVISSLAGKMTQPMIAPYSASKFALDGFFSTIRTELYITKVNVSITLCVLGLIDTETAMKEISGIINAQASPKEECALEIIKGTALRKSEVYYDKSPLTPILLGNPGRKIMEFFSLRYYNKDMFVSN
SMILES,IC50 (11β-HSD1 [1]) [nM],% Inhibition after 16 hours (dose of 10 (mg/kg)) (11β-HSD1 [2]) [%]
"COC(=O)N1CCC(N2CC[C@@H](Cc3c(Cl)cc(-c4ccc(F)cc4)cc3Cl)C2=O)CC1 [Example 3, 4-[(R)-3-(3,5-Dichloro-4′-fluoro-biphenyl-4-ylmethyl)-2-oxo-pyrrolidin-1-yl]-piperidine-1-carboxylic acid methyl ester]",84.5,
"COC(=O)N1CCC(N2CC[C@@H](Cc3c(Cl)cc(-c4ccc(C(=O)N5CCC(C(F)(F)F)CC5)cc4)cc3Cl)C2=O)CC1 [Example 4, 4-{(R)-3-[3,5-Dichloro-4′-(4-trifluoromethyl-piperidine-1-carbonyl)-biphenyl-4-ylmethyl]-2-oxo-pyrrolidin-1-yl}-piperidine-1-carboxylic acid methyl ester]",231,92
"CS(=O)(=O)N1CCC(N2CC[C@@H](Cc3c(Cl)cc(-c4ccc(F)cc4)cc3Cl)C2=O)CC1 [Example 1, (R)-3-(3,5-Dichloro-4′-fluoro-biphenyl-4-ylmethyl)-1-(1-methanesulfonyl-piperidin-4-yl)-pyrrolidin-2-one]",85,

# The next lines start with the values.
IC50 (11β-HSD1 [1]) [nM],% Inhibition after 16 hours (dose of 10 (mg/kg)) (11β-HSD1 [2]) [%],SMILES
73,65,"CNC(=O)N1CCC(N2CC[C@@H](Cc3c(Cl)cc(-c4ccc(F)cc4)cc3Cl)C2=O)CC1 [Example 6, 4-[(R)-3-(3,5-Dichloro-4′-fluoro-biphenyl-4-ylmethyl)-2-oxo-pyrrolidin-1-yl]-piperidine-1-carboxylic acid methylamide]"
159,,"O=C(Nc1ccccc1)N1CCC(N2CC[C@@H](Cc3c(Cl)cc(-c4ccc(F)cc4)cc3Cl)C2=O)CC1 [Example 8, 4-[(R)-3-(3,5-Dichloro-4′-fluoro-biphenyl-4-ylmethyl)-2-oxo-pyrrolidin-1-yl]-piperidine-1-carboxylic acid phenylamide]"
